Legend:
[1] = target: TYK2 (Homo sapiens (Human), UniProt P29597); test: JAK kinase assay (HTRF), TYK2; format: biochemical; conditions: catalytic domain (aa 871-1187), GST-tag, ATP at Km (13 μM)
Procedure: (§1) Human baculovirus-expressed JAK1, 2, 3 and TYK2 were purchased from Carna Biosciences, Inc. All four purified enzymes contain only the catalytic domain. JAK1 (aa 850-1154) and TYK2 (aa 871-1187) are expressed with an N-terminally fused GST-tag, and JAK2 and JAK3 with an N-terminally fused His-tag.
(§2) Inhibition of phosphorylation of a synthetic peptide was measured in an HTRF-based assay using the TK substrate-Biotin from the Cisbio HTRFKinEASE TK kit. First, 2 μl of TK solution (TK substrate-biotin in kinase buffer [1× enzymatic buffer from HTRFKinEASE TK kit, 1 mM DTT]) is added to a plate containing 1 μl prediluted compound (final assay concentration DMSO: 0.75%). Then, 5 μl kinase-ATP mix (prepared in kinase buffer) is added to the wells and the plates are incubated at RT for 20-30 min. For all four kinases a concentration of ATP that corresponded to the Km for ATP was used. The final concentrations of buffers, substrate, kinase and ATP were: JAK1: 50 mM Hepes buffer pH 7.0, 0.01% BSA, 10 mM MgCl2, 1 mM DTT, 7 μM ATP, 50 nM SEB, 1 μM TK Substrate-Biotin and 5 ng JAK1; JAK2: 50 mM Hepes buffer pH 7.0, 0.01% BSA, 5 mM MgCl2, 1 mM DTT, 4 μM ATP, 1 μM TK Substrate-Biotin and 0.1 ng JAK2; JAK3: 50 mM Hepes buffer pH 7.0, 0.01% BSA, 5 mM MgCl2, 1 mM DTT, 2 μM ATP, 1 μM TK Substrate-Biotin and 0.3 ng JAK3; TYK2: 50 mM Hepes buffer pH 7.0, 0.01% BSA, 5 mM MgCl2, 1 mM DTT, 13 μM ATP, 50 nM SEB, 1 μM TK Substrate-Biotin and 0.8 ng TYK2. Thereafter, the kinase reaction is stopped by adding 4 μl detection mix (final concentrations: 50 mM Hepes buffer pH 7.0, 0.01% BSA, 0.8 M KF, 20 mM EDTA, 42 nM Streptavidin-XL665 and 1:400 STK Ab Cryptate) and the plates are incubated overnight in the dark. The HTRF signal is read using an Envision plate reader.

[2] = target: JAK2 (Homo sapiens (Human), UniProt O60674); test: JAK kinase assay (HTRF), JAK2; format: biochemical; conditions: catalytic domain, His-tag, ATP at Km (4 μM)
Chain of JAK2 (O60674 849-1124): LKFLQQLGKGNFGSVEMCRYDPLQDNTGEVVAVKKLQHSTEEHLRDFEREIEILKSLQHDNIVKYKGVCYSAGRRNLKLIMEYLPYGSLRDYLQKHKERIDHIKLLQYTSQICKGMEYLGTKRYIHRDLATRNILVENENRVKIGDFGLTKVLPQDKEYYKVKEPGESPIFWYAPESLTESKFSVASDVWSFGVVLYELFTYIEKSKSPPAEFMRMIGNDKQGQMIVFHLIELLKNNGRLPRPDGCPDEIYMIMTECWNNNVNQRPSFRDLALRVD
Procedure: as §1, §2

[3] = target: JAK3 (Homo sapiens (Human), UniProt P52333); test: JAK kinase assay (HTRF), JAK3; format: biochemical; conditions: catalytic domain, His-tag, ATP at Km (2 μM)
Chain of JAK3 (P52333 822-1111): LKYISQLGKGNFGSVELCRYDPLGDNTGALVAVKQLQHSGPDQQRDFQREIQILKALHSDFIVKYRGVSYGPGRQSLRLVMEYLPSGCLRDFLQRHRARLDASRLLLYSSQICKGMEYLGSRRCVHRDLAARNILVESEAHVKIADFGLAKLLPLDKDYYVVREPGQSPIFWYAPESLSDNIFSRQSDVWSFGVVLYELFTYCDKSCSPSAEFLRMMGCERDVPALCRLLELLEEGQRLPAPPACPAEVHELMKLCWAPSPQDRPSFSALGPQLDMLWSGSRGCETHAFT
Procedure: as §1, §2

[4] = in vitro metabolic stability in human liver microsomes; format: in vitro ADME; conditions: compound 0.5 μM, human liver microsomes 0.5 mg/mL, NADPH, 40 min, 37° C.
Procedure: To assess the in vitro metabolic stability, the compounds (0.5 μM) were incubated in duplicates with human liver microsomes (0.5 mg/mL) in phosphate buffer and NADPH, in 96-well plates for 40 min (37° C.), using a liquid handling robot (Hamilton Microlab Star). Sample aliquots were taken at 0, 5, 10, 20 and 40 min, and dispensed into cold acetonitrile, in order to stop the reactions. The plates were centrifuged for 30 minutes before the samples were analyzed using liquid chromatography coupled to a time-of-flight mass spectrometer (AB Sciex API5600). The compound depletion over time was used to estimate the elimination rate constant, from which the apparent intrinsic clearance, Clapp, was calculated and the values are listed in table 2.

[5] = target: JAK1 (Homo sapiens (Human), UniProt P23458); test: JAK kinase assay (HTRF), JAK1; format: biochemical; conditions: catalytic domain (aa 850-1154), GST-tag, ATP at Km (7 μM)
Chain of JAK1 (P23458 850-1154): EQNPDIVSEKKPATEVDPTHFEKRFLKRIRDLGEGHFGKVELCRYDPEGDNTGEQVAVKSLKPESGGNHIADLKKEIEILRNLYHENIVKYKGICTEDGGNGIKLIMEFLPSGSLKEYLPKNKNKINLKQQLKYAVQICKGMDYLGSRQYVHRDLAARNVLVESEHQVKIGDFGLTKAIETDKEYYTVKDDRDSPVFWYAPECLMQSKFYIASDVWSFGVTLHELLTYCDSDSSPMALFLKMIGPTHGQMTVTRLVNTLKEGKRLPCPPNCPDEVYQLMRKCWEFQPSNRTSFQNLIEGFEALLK
Procedure: as §1, §2

Chain of TYK2 (P29597 871-1187): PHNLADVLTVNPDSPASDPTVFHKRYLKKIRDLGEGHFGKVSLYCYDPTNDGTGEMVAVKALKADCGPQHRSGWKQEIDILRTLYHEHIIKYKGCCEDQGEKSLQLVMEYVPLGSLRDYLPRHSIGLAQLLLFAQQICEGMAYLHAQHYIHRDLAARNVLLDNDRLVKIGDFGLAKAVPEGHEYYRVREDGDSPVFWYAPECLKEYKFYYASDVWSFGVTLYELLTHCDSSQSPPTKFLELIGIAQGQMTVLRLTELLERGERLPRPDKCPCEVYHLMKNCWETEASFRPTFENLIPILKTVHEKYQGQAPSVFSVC

Structure (SMILES) | EC50 [1] [nM] | EC50 [2] [nM] | EC50 [3] [nM] | CLint scaled at 0.5 μM ([4]; human, liver microsomes, read-out: Human liver microsome Clapp (apparent intrinsic clearance)) [mL/min/kg] | EC50 [5] [nM] | Human liver microsome Clapp (apparent intrinsic clearance) [4] [mL/min/kg]
Cc1cc(N2C[C@H]3CCN(c4ncnc5[nH]ccc45)C[C@@]3(C)C2)ncc1C#N (racemic) [Example 40, 6-[(3aR*,7aS*)-3a-methyl-5-(7H-pyrrolo[2,3-d]pyrimidin-4-yl)-1,3,4,6,7,7a-hexahydropyrrolo[3,4-c]pyridin-2-yl]-4-methyl-pyridine-3-carbonitrile] | 722 | 28 | 46 | 200 | 3 | –
C[C@]12CN(C#N)CC[C@H]1CCN(c1ncnc3[nH]ccc13)C2 (relative stereo) [Example 2, (4aR*,8aS*)-8a-methyl-7-(7H-pyrrolo[2,3-d]pyrimidin-4-yl)-3,4,4a,5,6,8-hexahydro-1H-2,7-naphthyridine-2-carbonitrile] | 27 | 6 | 25 | – | 1 | 62
CC[C@@]12CN(c3ncnc4[nH]ccc34)CC[C@@H]1CCN(S(N)(=O)=O)C2 [Example 18, (4aR,8aS)-8a-ethyl-7-(7H-pyrrolo[2,3-d]pyrimidin-4-yl)-3,4,4a,5,6,8-hexahydro-1H-2,7-naphthyridine-2-sulfonamide] | 17 | 3 | 2 | – | 2 | 127
CC[C@]12CN(c3nc(C#N)cs3)CC[C@H]1CCN(c1ncnc3[nH]ccc13)C2 (relative stereo) [Example 25, 2-[(4aR*,8aS*)-8a-ethyl-7-(7H-pyrrolo[2,3-d]pyrimidin-4-yl)-3,4,4a,5,6,8-hexahydro-1H-2,7-naphthyridin-2-yl]thiazole-4-carbonitrile] | 1110 | 139 | 29 | – | 46 | –
Cc1nc(N2C[C@H]3CCN(c4ncnc5[nH]ccc45)C[C@@]3(C)C2)ccc1C#N (racemic) [Example 45, 6-[(3aR*,7aS*)-3a-methyl-5-(7H-pyrrolo[2,3-d]pyrimidin-4-yl)-1,3,4,6,7,7a-hexahydropyrrolo[3,4-c]pyridin-2-yl]-2-methyl-pyridine-3-carbonitrile] | 1190 | 103 | 120 | – | 30 | –
C[C@@]12CN(c3ncnc4[nH]ccc34)CC[C@@H]1CN(S(=O)(=O)NCC#N)C2 (racemic) [Example 30, (3aS*,7aS*)—N-(cyanomethyl)-3a-methyl-5-(7H-pyrrolo[2,3-d]pyrimidin-4-yl)-1,3,4,6,7,7a-hexahydropyrrolo[3,4-c]pyridine-2-sulfonamide] | 364 | 56 | 91 | – | 29 | –
C[C@]12CN(C(=O)CC#N)C[C@H]1CCN(c1ncnc3[nH]ccc13)C2 (racemic) [Example 32, 3-[(3aS*,7aS*)-3a-methyl-5-(7H-pyrrolo[2,3-d]pyrimidin-4-yl)-1,3,4,6,7,7a-hexahydropyrrolo[3,4-c]pyridin-2-yl]-3-oxo-propanenitrile] | 307 | 67 | 162 | – | 16 | –
C[C@@]12CN(c3ncnc4[nH]ccc34)CC[C@@H]1CCN(S(N)(=O)=O)C2 (racemic) [Example 9, (4aR*,8aS*)-8a-methyl-7-(7H-pyrrolo[2,3-d]pyrimidin-4-yl)-3,4,4a,5,6,8-hexahydro-1H-2,7-naphthyridine-2-sulfonamide] | 241 | 58 | 8 | – | 39 | –
C[C@]12CN(c3ccc(S(C)(=O)=O)cn3)C[C@H]1CCN(c1ncnc3[nH]ccc13)C2 (racemic) [Example 35] | 2440 | 131 | 95 | – | 13 | –
C[C@]12CN(C(=O)C3(C#N)CCCC3)C[C@H]1CCN(c1ncnc3[nH]ccc13)C2 (racemic) [Example 46, 1-[(3aS*,7aS*)-3a-methyl-5-(7H-pyrrolo[2,3-d]pyrimidin-4-yl)-1,3,4,6,7,7a-hexahydropyrrolo[3,4-c]pyridine-2-carbonyl]cyclopentanecarbonitrile] | 1510 | 625 | 705 | – | 97 | –

From patent publication US10851116B2, “Bicyclic amines as novel JAK kinase inhibitors” (LEO Pharma A/S, priority 2017, dated 2020)
